In patent US20230127944A1, “BROAD-SPECTRUM CARBAPENEMS” (priority 2019, published 2023) one finds MIC data, which are given here for one compound.

For the test, the system named is S. aureus USA 600. The test can be described thus: broth microdilution MIC assay, S. aureus USA600. The class given is cell-based. The settings on record: Staphylococcus aureus; S. aureus USA600 (MRSA); read-out: MIC, S. aureus USA600. The essentials: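 MIC was scored by eye as the lowest concentration showing no visible growth after 16-20 h at 37 °C. Bacteria grown 3-5 h in divalent-cation-supplemented Mueller-Hinton broth were added at 5×10^5 CFU/mL to 2-fold serial compound dilutions, following CLSI methods.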
On the technique in general: In broth dilution the organism is exposed to a series of concentrations in liquid medium.

For the compound `C[C@@H](O)[C@H]1C(=O)N2C(C(=O)O)=C(S[C@@H]3CCN(C[C@H]4CC[C@H](NC(=N)N)CC4)C3)[C@H](C)[C@H]12` [Example 28, (4R,5S,6S)-3-(((R)-1-(((1R,4R)-4-guanidinocyclohexyl)methyl)pyrrolidin-3-yl)thio)-6-((R)-1-hydroxyethyl)-4-methyl-7-oxo-1-azabicyclo[3.2.0]hept-2-ene-2-carboxylic acid], the minimum inhibitory concentration (MIC) is less than 1 µg/mL.

By MIC is commonly meant the lowest concentration that inhibits growth of the organism.
